Literature values, collected in patent US20060251722A1, “Multi-component vitamin and mineral supplement for the optimal absorption of components” (Novavax, Inc., priority 2005, published 2006).

Conditions: rat, in vivo, po

bioavailability relative to other elemental iron forms: 2-5 times
Substance: carbonyl iron
